As a reminder, the Kd is the free concentration of one partner at which half of the binding sites on the other are occupied at equilibrium, for simple one-to-one binding. As usually defined, the stoichiometry N is the number of molecules, sites or subunits per partner or assembly.

One data set has as its target L-lectin module of SraP (Staphylococcus aureus, UniProt Q2FUW1). Kind of data set: SPR (Biacore […]), steady state, […] Langmuir fit. The class given is binding. To be noted: 10 mM HEPES pH 7.5, 150 mM NaCl, 0.005% Tween 20, 25 °C; protein immobilised on CM5 chip; Neu5Ac 0.12-10 mM.
Data set [1] deals with the molecule itself. In words: SEC; Superdex 75 column, CDHL-1&2 against protein markers of 67, 44, 25, 17 and 13.7 kDa. Background: SEC sorts molecules by how far they enter the pores of the column.

Sequence of L-lectin module of SraP (Q2FUW1 245-491): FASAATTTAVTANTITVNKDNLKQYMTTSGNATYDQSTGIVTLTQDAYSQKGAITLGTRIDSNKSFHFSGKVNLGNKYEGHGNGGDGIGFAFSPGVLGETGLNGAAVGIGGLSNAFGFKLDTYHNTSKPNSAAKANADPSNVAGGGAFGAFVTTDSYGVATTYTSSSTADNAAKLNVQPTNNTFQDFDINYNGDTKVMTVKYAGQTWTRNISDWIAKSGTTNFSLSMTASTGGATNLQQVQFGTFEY

On L-lectin module of SraP, `CC(=O)N[C@H]1[C@H]([C@H](O)[C@H](O)CO)OC(O)(C(=O)O)C[C@@H]1O` (some centres unmarked) [N-acetylneuraminic acid] displayed a Kd of 540 µM.

B1: CDHL-1&2 (tandem cadherin-like modules of SraP, Ala576–Asn751) (domain or fragment)
chain: APTVTVGNQTIEVGKTMNPIVLTTTDNGTGTVTNTVTGLPSGLSYDSATNSIIGTPTKIGQSTVTVVSTDQANNKSTTTFTINVVDTTAPTVTPIGDQSSEVYSPISPIKIATQDNSGNAVTNTVTGLPSGLTFDSTNNTISGTPTNIGTSTISIVSTDASGNKTTTTFKYEVTRN
notes: modules CDHL-1 and CDHL-2, residues Ala576–Asn751; Lacks the two Ca-2 coordinating residues Asp573 and Lys575; also called CDHL-1&2 modules; tandem CDHL modules; source: E. coli BL21, purified (Ni-NTA, Superdex 200 or Superdex 75)
Regarding B1, in data set [1], the “stoichiometry N” value was found to be 2.

Source of the values: publication PMC4047093, “Structural Insights into SraP-Mediated Staphylococcus aureus Adhesion to Host Cells” (PLoS Pathogens, 2014).
